pEC50: −log10 of the molar value.
What was measured:
Format in all cases: biochemical
[1] = biological target: T1, E. coli-expressed His-α2β1γ1 AMPK (Homo sapiens, UniProt P54646+Q9Y478); assay: In solution SAMS kinase assay, E. coli-expressed myristoylated His-α2β1γ1, CaMKK2-treated; conditions: for pEC50 / Max. fold activation: E. coli-expressed α2β1γ1, CaMKK2-treated; for sensitivity to activation relative to immobilised GST-α2β1γ1 from HEK293T/17 cells: His-tagged myristoylated α2β1γ1, E. coli, CaMKK2-treated
T1 construct: Recombinant full-length AMPK 6xHisα2β1γ1 was expressed in E. coli Rosetta 2 (DE3); made in house; host or cells: E. coli Rosetta 2 (DE3)
T1 sequence (P54646 whole entry): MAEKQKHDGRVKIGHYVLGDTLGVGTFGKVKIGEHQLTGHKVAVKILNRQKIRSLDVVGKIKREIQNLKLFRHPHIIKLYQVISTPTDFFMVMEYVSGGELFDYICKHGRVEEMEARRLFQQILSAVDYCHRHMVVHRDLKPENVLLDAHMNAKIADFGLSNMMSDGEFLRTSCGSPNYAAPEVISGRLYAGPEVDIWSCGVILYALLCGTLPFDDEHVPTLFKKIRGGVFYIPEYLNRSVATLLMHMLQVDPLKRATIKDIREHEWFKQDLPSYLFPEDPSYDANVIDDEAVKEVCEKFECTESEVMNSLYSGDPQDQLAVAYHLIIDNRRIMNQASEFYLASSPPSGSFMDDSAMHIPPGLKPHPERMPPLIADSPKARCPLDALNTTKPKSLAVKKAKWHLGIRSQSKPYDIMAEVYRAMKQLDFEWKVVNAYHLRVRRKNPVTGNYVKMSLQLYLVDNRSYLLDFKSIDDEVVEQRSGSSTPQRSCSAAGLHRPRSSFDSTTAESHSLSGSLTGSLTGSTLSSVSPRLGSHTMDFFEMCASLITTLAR
T1 sequence (Q9Y478 whole entry): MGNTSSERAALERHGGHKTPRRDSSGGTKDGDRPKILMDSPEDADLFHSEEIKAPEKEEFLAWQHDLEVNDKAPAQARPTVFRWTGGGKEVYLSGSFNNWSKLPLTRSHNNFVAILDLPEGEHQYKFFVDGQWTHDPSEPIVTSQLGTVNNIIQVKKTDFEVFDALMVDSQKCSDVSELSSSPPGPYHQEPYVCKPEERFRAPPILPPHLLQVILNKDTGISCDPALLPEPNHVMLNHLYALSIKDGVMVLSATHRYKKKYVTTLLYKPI
T1 sequence (P54619 whole entry partner): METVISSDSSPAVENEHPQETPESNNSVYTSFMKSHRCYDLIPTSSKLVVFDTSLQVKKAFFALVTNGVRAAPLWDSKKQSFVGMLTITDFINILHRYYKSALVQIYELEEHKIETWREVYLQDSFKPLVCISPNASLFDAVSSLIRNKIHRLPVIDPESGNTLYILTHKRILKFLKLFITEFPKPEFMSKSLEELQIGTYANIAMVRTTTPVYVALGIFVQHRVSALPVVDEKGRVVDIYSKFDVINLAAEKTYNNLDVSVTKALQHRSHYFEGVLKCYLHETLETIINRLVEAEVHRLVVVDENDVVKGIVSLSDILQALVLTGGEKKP
Source text: We directly compared in vitro potencies of pan activators by performing radiolabel kinase assays with γ1AMPK complexes. Initially, we used GST-tagged γ1AMPK expressed in HEK293T/17 cells and immobilised on glutathione-Sepharose (Figure 2 and Table 2). […] These assays used AMPK purified from Sf9 insect cells or E. coli that was pre-treated with CaMKK2. […] However, relative to immobilised GST-α2β1γ1 from HEK293T/17 cells, His-tagged and myristoylated α2β1γ1 AMPK (expressed in E. coli, CaMKK2-treated and assayed in solution) was at least 10-fold more sensitive to activation by both MK-8722 and MSG011 (Supplementary Figure S3B), indicating the GST-affinity tag or CaMKK2 treatment may exert some influence on sensitivity to these activators.
Recombinant full-length AMPK 6xHisα2β1γ1 was expressed in E. coli Rosetta 2 (DE3) (Merck Millipore) after double-transformation of pET-Duet-1 (α and γ subunits) and pCOLA (β subunit) vectors. Expression cultures were grown at 37°C in Luria-Bertani broth supplemented with 100 µg ml^−1 ampicillin and 50 µg ml^−1 kanamycin. Cultures shaking at 120 rpm in PYREX 2800 ml Fernbach-style culture flasks with baffles (Corning) were grown to an optical density (OD600) of 3.0 before induction with 500 µM isopropyl-β-D-1-thiogalactopyranoside (IPTG; Gold Biotechnology) and incubation overnight at 16°C. Cell pellets were resuspended in lysis buffer (50 mM TRIS pH 7.6, 500 mM NaCl, 5% (v/v) glycerol, 50 mM imidazole, 2 mM β-mercaptoethanol, 0.01 mM leupeptin, 0.1 mM AEBSF, 0.5 mM benzamidine hydrochloride), lysed using a precooled EmulsiFlex-C5 homogeniser (Avestin) and clarified via centrifugation (16 000g, 30 min, 4°C). Supernatant was passed through a HisTrap HP 5 ml Ni^2+ column (GE Healthcare) at 1 ml min^−1. The column was washed with 10 column volumes of chilled Ni^2+ column buffer (50 mM TRIS pH 7.6, 500 mM NaCl, 10% (v/v) glycerol, 50 mM imidazole, 2 mM β-mercaptoethanol) before elution with Ni^2+ column buffer supplemented with 400 mM imidazole. Proteinaceous fractions were then separated on a HiLoad 16/600 Superdex 200 gel filtration column (GE Healthcare) pre-equilibrated with size exclusion column buffer (SEC buffer; 50 mM TRIS pH 8.0, 150 mM NaCl, 2 mM tris(2-carboxyethyl) phosphine (TCEP)). AMPK containing fractions were pooled and concentrated to ∼2 mg ml^−1 using Amicon centrifugal filter units (Merck Millipore) prior to CaMKK2 treatment.
To phosphorylate AMPK, purified protein was incubated in the presence of 0.5 mM ATP, 0.5 mM AMP, 2.5 mM MgCl2 (Merck Millipore), SEC buffer and purified CaMKK2 (1 : 2500 mass ratio of CaMKK2:AMPK; for 1 h at 22°C with gentle rolling. The phosphorylation reaction was terminated by directly loading onto a HiLoad 16/600 Superdex 200 gel filtration column pre-equilibrated with SEC buffer. Protein was either assayed or concentrated to ∼10 mg ml^−1 using Amicon centrifugal filter units and flash frozen in L-N2 and stored at −80°C. The purified AMPK was analysed by ToF-MS and sample purity confirmed by SDS–PAGE.
AMPK activity was determined by phosphorylation of the SAMS peptide (Purar Chemicals, sequence: NH2-HMRSAMSGLHLVKRR-COOH) in a 25 µl reaction volume containing 100 µM SAMS peptide, 5 mM MgCl2, 200 µM ATP, [γ-^32P]-ATP (PerkinElmer) and assay buffer (50 mM HEPES pH 7.4, 1 mM DTT and 0.02% (v/v) Tween-20) and purified AMPK. Phosphotransferase activity was conducted at 30°C for 10 min and reactions were quenched by spotting 15 µl onto phosphocellulose ion-exchange chromatography paper (made in-house), followed by repeated washes in 1% H3PO4 (Merck Millipore). Ultima Gold liquid scintillation fluid (5 ml; PerkinElmer) was added to vials containing dried phosphocellulose papers, and the level of ^32P-transfer to the SAMS peptide was determined using a Tri-Carb 2900TR liquid scintillation counter (PerkinElmer).
⍺1β1γ1 – in solution E. coli-expressed ⍺2β1γ1
log [compound] (M) log [compound] (M)
Compound EC (nM) Max. fold Compound EC50 (nM) Max. fold […]

human GST-AMPK α1β2γ1 = biological target: T2, human GST-AMPK α1β2γ1 (Homo sapiens, UniProt O43741+Q13131); assay: Radiolabel SAMS kinase assay, GST-AMPK from HEK293T/17 cells immobilised on glutathione-Sepharose; conditions: for Max. fold activation: immobilised α1β2γ1; for pEC50: immobilised α1β2γ1, 0–30 µM activator
T2 construct: triply transfected with full-length AMPK α1 or α2 (NH2-terminal GST fusion, pDEST27 vector); full-length AMPK α1 or α2 (NH2-terminal GST fusion, pDEST27 vector), β1 or β2 (COOH-terminal FLAG fusion, pcDNA3.1 vector); FLAG (C); made in house; host or cells: HEK293T/17 cells, transient triple transfection
T2 sequence (Q13131 whole entry, the tested form may be a part): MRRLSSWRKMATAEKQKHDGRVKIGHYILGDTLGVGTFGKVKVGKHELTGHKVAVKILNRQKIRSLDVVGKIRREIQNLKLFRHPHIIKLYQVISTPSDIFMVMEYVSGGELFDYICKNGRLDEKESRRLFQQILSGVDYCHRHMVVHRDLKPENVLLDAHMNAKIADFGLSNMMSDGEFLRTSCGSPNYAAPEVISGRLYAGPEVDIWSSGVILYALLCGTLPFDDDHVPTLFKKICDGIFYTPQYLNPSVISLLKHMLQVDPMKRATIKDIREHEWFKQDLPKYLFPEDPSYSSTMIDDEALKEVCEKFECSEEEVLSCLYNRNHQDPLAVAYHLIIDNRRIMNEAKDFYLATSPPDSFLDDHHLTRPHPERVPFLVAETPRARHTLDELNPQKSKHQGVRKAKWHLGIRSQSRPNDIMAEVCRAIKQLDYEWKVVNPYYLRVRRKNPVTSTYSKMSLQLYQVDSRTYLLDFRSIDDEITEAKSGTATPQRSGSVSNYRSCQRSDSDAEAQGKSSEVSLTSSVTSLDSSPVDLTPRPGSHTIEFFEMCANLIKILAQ
T2 sequence (O43741 whole entry, the tested form may be a part): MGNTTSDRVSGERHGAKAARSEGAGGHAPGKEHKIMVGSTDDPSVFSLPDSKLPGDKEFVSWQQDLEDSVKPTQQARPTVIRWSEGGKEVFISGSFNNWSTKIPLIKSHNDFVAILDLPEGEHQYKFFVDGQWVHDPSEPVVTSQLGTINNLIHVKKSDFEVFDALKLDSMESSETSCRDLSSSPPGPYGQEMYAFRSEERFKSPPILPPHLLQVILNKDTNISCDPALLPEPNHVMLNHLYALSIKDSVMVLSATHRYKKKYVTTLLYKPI
T2 sequence (P54619 whole entry partner, the tested form may be a part): as the sequence (P54619 whole entry partner) above

human GST-AMPK α2β2γ1 = biological target: T3, human GST-AMPK α2β2γ1 (Homo sapiens, UniProt O43741+P54646); assay: as above; conditions: for Max. fold activation: immobilised α2β2γ1; for pEC50: immobilised α2β2γ1, 0–30 µM activator
T3 construct: triply transfected with full-length AMPK α1 or α2 (NH2-terminal GST fusion, pDEST27 vector); full-length AMPK α1 or α2 (NH2-terminal GST fusion, pDEST27 vector), β1 or β2 (COOH-terminal FLAG fusion, pcDNA3.1 vector); FLAG (C); made in house; host or cells: HEK293T/17 cells, transient triple transfection
T3 sequence (P54646 whole entry, the tested form may be a part): as the sequence (P54646 whole entry) above
T3 sequence (O43741 whole entry, the tested form may be a part): as the sequence (O43741 whole entry, the tested form may be a part) above
T3 sequence (P54619 whole entry partner, the tested form may be a part): as the sequence (P54619 whole entry partner) above

Compound | pEC50 [1] | Max. fold activation [1] | sensitivity to activation relative to immobilised GST-α2β1γ1 from HEK293T/17 cells [1] | Max. fold activation (human GST-AMPK α1β2γ1) | pEC50 (human GST-AMPK α1β2γ1) | Max. fold activation (human GST-AMPK α2β2γ1) | pEC50 (human GST-AMPK α2β2γ1)
CC(=O)NC1CC=C(c2ccc(-c3nc4nc(Oc5ccc(C)c(C(=O)O)c5)[nH]c4cc3Cl)cc2)CC1 (centres unmarked) [MSG011, 5-((5-(4′-Acetamido-2′,3′,4′,5′-tetrahydro-[1,1′-biphenyl]-4-yl)-6-chloro-1H-imidazo[4,5-b]pyridin-2-yl)oxy)-2-methylbenzoic acid] | 7.49 | 5.5 fold | at least 10 fold | 2.3 fold | 6.60 | 4.0 fold | 6.33
O[C@@H]1CO[C@H]2[C@@H]1OC[C@H]2Oc1nc2nc(-c3ccc(-c4ccccc4)cc3)c(Cl)cc2[nH]1 [MK-8722, reference compound] | 6.48 | 3.6 fold | at least 10 fold | 4.4 fold | 5.66 | 5.8 fold | 5.25
